Assay results as given in ChEMBL document CHEMBL1151160, “Challenges and rewards of research in marine natural products chemistry in Brazil” (J Nat Prod, 2004).
In brackets after ≈: the same amount, converted by molar mass.

How the values were obtained:
Assay type in all cases: functional, cell-based
[1] = test system: MCF7; assay: Inhibition of G2 check point in gamma-irradiated human MCF7 cells expressing mutant p53 after 16 hrs by flow cytometry; conditions: MCF7, light or radiation study
[2] = test system: MCF7; assay: Cytotoxicity against human MCF7 cells after 16 hrs by Celltiter assay; conditions: MCF7, 16 h
[3] = test system: HCT-116; assay: Cytotoxicity against human HCT116 cells

Row | IC50 [1] [nM] | Compound | IC50 [2] [nM] | IC50 [3] [µg/mL]
1 | 1000 | O=C1NC(=O)c2c1c1[nH]cnc1c1[nH]c3ccccc3c21 [GRANULATIMIDE] | – | –
2 | 1000 | O=C1NC(=O)c2c1c1c3ccccc3[nH]c1n1cncc21 [ISOGRANULATIMIDE] | 40000 | –
3 | – | CC(=O)OCC(C)CCC[C@@H](C)[C@H]1CC[C@H]2[C@@H]3C[C@@H](O)[C@@]4(O)C[C@@H](O[C@@H]5OC[C@@H](O)[C@@H](OC(C)=O)[C@@H]5O)CC[C@]4(C)[C@H]3CC[C@]12C (stereo not given in full) [RIISEIN A] | – | 2 (≈ 3.06 µM)
4 | – | CC(=O)OCC(C)CCC[C@@H](C)[C@H]1CC[C@H]2[C@@H]3C[C@@H](O)[C@@]4(O)C[C@@H](O[C@@H]5OC[C@@H](OC(C)=O)[C@@H](O)[C@@H]5O)CC[C@]4(C)[C@H]3CC[C@]12C (stereo not given in full) [RIISEIN B] | – | 2 (≈ 3.06 µM)
